Source: patent US10864192B2, “Compositions and methods for inhibiting brain trauma-induced neurodegeneration and related conditions” (priority 2016, dated 2020)
Where “and” joins values, the source holds several entries; their conditions need not be identical. Equal values may be shown once.

Experiments:
[1] = Plasma concentrations of phenserine and its metabolites in human plasma; type: in vivo
Experimental: The relationship between pharmacokinetic and pharmacodynamics evaluated in FIG. 15 was evaluated in aged volunteers. A total of 32 subjects (60-80 years of age, 11 males/21 females) were screened and enrolled. All participants provided informed consent, the conduct of the study were approved and overseen by the local Review IRB.
For pharmacokinetic (blood concentrations of primary drug and select metabolites) a dose […] additionally was evaluated.
These were centrifuged within 15 min of collection, and stored in a freezer at −70° C. freezer in marked polypropylene tubes until analysis. Phenserine levels were quantified by liquid chromatography/mass spectrometry (LC/MS/MS). In brief, analyses were undertaken on Perkin-Elmer (PE, Norwalk, USA) high performance liquid chromatographic (HPLC) instrumentation. Compound separation was performed on a Phenomenex LUNA C18 column (5 μM, 2.0 mm×150 mm; Torrance, USA), with a Phenomenex guard column (2 mm×30 mm). The mobile phase was 60% acetonitrile (HPLC grade) plus 40% ammonium acetate (v/v) with a flow rate of 0.4 mL/min. […] Thereafter, 2 mL of tert-butyl methyl ether was added and the sample was mixed and flash frozen. The organic layer was decanted, dried under a stream of nitrogen and reconstituted into 250 μL of mobile phase. Of this, a 60 μL sample was then injected into the HPLC.

clinical = test: clinical
Source text: FIGS. 33-34 depict two graphs from an Excel spreadsheet. FIG. 33 is a linear plot of plasma level vs time and FIG. 34 is a semi-log plot of plasma conc. vs time.

[2] = test system: human peripheral blood mononuclear cells (PBMCs); test: PHA-induced cytokine production in human PBMCs; type: cell-based; settings: phenserine 100 nM to 10 μM, 24 hr, PHA 3 μg/mL
Source text: The detection limit for these assays is <1 pg/mL for IL-1beta and <3 pg/mL for IL-10. The intra- and inter-assay CV was <10%. All results are expressed in picograms per milliliter.

[3] = test system: cultured hippocampal neurons; test: Glutamate-induced excitotoxicity in cultured neurons; type: cell-based, rat (Sprague Dawley); settings: phenserine 5 μM, glutamate 50 μM, 24 hr
Experimental: Briefly, cultured hippocampal neurons in triplicate were prepared from 18-20 day rat (Sprague Dawley) embryos and were cultured for 7 days. […] Neuronal viability was assessed 24 hr after addition of glutamate. The results are plotted as percent neuronal survival±SEM. […] Twenty-four hours later cell viability was quantified (by MTS assay—using, for example but not limited to, the CellTiter 96 Aqueous One Solution Cell Proliferation Assay kit (Promega, Madison, Wis., USA) according to the manufacturer's instructions).

SH-SY5Y cells = test: H2O2-induced oxidative stress in SH-SY5Y cells (MTS assay); type: cell-based, human; settings: phenserine 10 and 30 μM, 100 μM H2O2, 24 hr
SH-SY5Y neuronal cells = test: Phenserine plus anti-inflammatory drug, oxidative stress and trophic effects in SH-SY5Y cells (MTS assay)
Experimental: Human SH-SY5Y neuronal cells were seeded in 96-well plates at a density of 1×10^5 cells per well and allowed to grow for 24 hr. […] […] At 18 hr thereafter a MTS assay was performed per the manufacturers protocol (Abcam, Cambridge, Mass.) to measure cell viability.
For example, instead of aspirin (as shown in FIG. 3A), an NSAID, naproxen, was used under the same experimental conditions at concentrations in FIGS. 3B-3D.

[4] = test system: APP/PS1 AD transgenic (Tg) male mice; test: Concussive mTBI in APP/PS1 AD Tg mice, immunohistochemistry 72 hr post injury; type: in vivo, mouse; settings: 72 hr post TBI
Source text: To study this in a model for prevention of progression of TBI pathologies into AD with resulting neuronal cell dysfunction and death, together with neuroinflammation, we used already ongoing, aged (10 to 12 month old) APP/PS1 AD transgenic (Tg) male mice were challenged with mTBI (concussive 30 g weight drop), followed by similar (−)-phenserine or vehicle post-treatment.
To similarly cross-validate this in the more complex model of aged (10 to 12 month old) APP/PS1 AD Tg male mice, animals were challenged with mTBI (concussive 30 g weight drop) followed by (−)-phenserine or vehicle post-treatment. […] Likewise, co-localization of proinflammatory TNF-α was elevated within IBA1+ microglia across brain regions in AD Tg APP/PS1 mice with and without mTBI, and this trend was mitigated by (−)-phenserine post treatment in mTBI challenged animals (FIG. 23).
(−)-Phenserine mitigates losses in synaptic integrity in wild and Tg mice subjected to weight drop injury. To evaluate whether mTBI-induced elevations in markers of cell loss (FJC) and neuroinflammation (TNF-α and IBA1+) are allied with a loss of synaptic integrity (which associates with cognitive loss (Wakade et al., 2010)), post- and pre-synaptic protein markers of synaptic integrity (post-synaptic density-95 (PSD-95) and synaptophysin, respectively) were immunohistochemically stained and quantified in control (w/o head injury) and mTBI challenged mice post-treated with vehicle or (−)-phenserine. […] These declines were mitigated by post treatment with (−)-phenserine. An alike trend was evident in mTBI challenged APP/PS1 AD Tg mice, and these reductions in post- and presynaptic proteins were similarly mitigated by post-treatment with (−)-phenserine (FIG. 25)

[5] = Tolerability of immediate release phenserine in patients; type: in vivo, human; settings: immediate release dose of 20 mg
[6] = in vivo
[7] = 5 mg/kg BID, hippocampus and lateral cortex

CN1CC[C@@]2(C)c3cc(OC(=O)Nc4ccccc4)ccc3N(C)[C@@H]12 [phenserine, (−)-phenylcarbamoyleseroline]
Average Plasma Concentrations ([1]; Hour 1): 3.02 ng/mL | Average Plasma Concentrations ([1]; Hour 2): 2.09 ng/mL | Average Plasma Concentrations ([1]; Hour 3): 1.08 ng/mL | Average Plasma Concentrations ([1]; Hour 4): 0.31 ng/mL | Cmax (clinical; human, in vivo, 15 mg): 3.02 ng/mL and 8.9 nM | expected plasma levels (clinical; targeted 30 mg/d or 60 mg/d in sustained release formulation): 1.58 to 0.53 ng/ml | PHA-induced anti-inflammatory IL-10 levels [2]: without impacting | PHA-induced elevation in pro-inflammatory IL-1β levels [2]: substantially mitigated | cell viability (percent neuronal survival) [3]: 73.5 % of control levels | H2O2-mediated neuronal toxicity (cell viability) (SH-SY5Y cells): significantly ameliorated | oxidative stress-induced cellular death (cell viability) (SH-SY5Y neuronal cells; ASA 10^−5 M, (−)-Phen 10^−7 M, 10^−6 M, H2O2 50 μM, 18 hr): no activity | loss in cell viability following oxidative stress (SH-SY5Y neuronal cells; H2O2 300 μM, phenserine 100 nM, naproxen 10 to 1000 nM): does not statistically mitigate | neurotrophic effect (cell survival) (SH-SY5Y neuronal cells; phenserine 10 nM, naproxen 100 nM): no neurotrophic action | mTBI-induced activation of microglia (IBA1+ cells) [4, 7]: mitigated | mTBI-induced neurodegeneration (Fluoro-Jade C+ cells) [4, 7]: counteracted | mTBI-induced reductions in synaptophysin and PSD-95 [4]: mitigated | mTBI-induced elevations in TNF-α within microglia (co-localized TNF-α and IBA1+ cells) ([4]; hippocampus and lateral cortex): mitigated | negative consequences in patients [5]: negative consequences (e.g., vomiting, diarrhea, nausea, etc.) have been observed | Brain:Plasma Partitioning [6]: 6.8-10:1 | brain:blood partition [6]: approx. 8:1
